According to the NIST ThermoML archive (doi:10.1016/j.fluid.2017.05.010):
Numbers after ± are expanded uncertainties.

conditions: Liquid; Resistive pulse heating

Row | Structure (SMILES) | Critical pressure | Critical temperature
1 | CCc1ccccn1 [2-ethylpyridine] | 3810 ± 110 kPa | 628 ± 6 K
2 | CCc1cccnc1 [3-ethylpyridine] | 4190 ± 130 kPa | 651 ± 7 K
3 | CCc1ccncc1 [γ-ethylpyridine] | 4190 ± 130 kPa | 653 ± 7 K
4 | CCc1ccc(C)nc1 [3-ethyl-6-methylpyridine] | 3250 ± 100 kPa | 656 ± 7 K
